Source: PubChem BioAssay AID1549 (Sanford-Burnham Center for Chemical Genomics, 2009)
Activity calls are given as the source filed them. No rule for the calls is given here.

Molecular target: Influenza A virus M2 proton channel (A/TW/4845/1999 H1N1)
Experiment: NMR binding screen, influenza A virus M2 proton channel, Kd (AID 1549)
Conditions: M2 protein

SMILES | Kd
C[C@@H]1O[C@@H](O[C@H]2[C@H](Oc3cc(O)c4c(=O)cc(-c5ccc(O)cc5)oc4c3)O[C@H](CO)[C@@H](O)[C@@H]2O)[C@H](O)[C@H](O)[C@H]1O | > 4 mM (inactive)
Cc1cc(C)n2nc(Cc3ccccc3)nc2n1 | > 4 mM (inactive)
CCc1ccc(/C=N/n2cnnc2)cc1 | > 4 mM (inactive)
COc1cc(/C=C2\SC(=S)NC2=O)ccc1O | > 4 mM (inactive)
Cn1nnc2cc(C(=O)NC3=NCCS3)ccc21 | > 4 mM (inactive)
NCc1ccc(-c2cccs2)s1 | > 4 mM (inactive)
N#Cc1c(N)c(C(=O)c2ccccc2)n2c1CCC2 | > 4 mM (inactive)
C#CCCCCCCCCCCCc1ccco1 | > 4 mM (inactive)
NC(=O)C1CCN(C(=O)c2ccccc2F)CC1 | > 4 mM (inactive)
Cc1ccc(S(C)(=O)=O)s1 | > 4 mM (inactive)
COC1=CC(=O)C[C@@H](C)[C@]12Oc1c(Cl)c(OC)cc(OC)c1C2=O | > 4 mM (inactive)
O=C(NCc1ccccc1)c1cnsn1 | > 4 mM (inactive)
COc1cc(OC)c2c(=O)c(O)c(-c3ccc(OC)c(OC)c3)oc2c1 | > 4 mM (inactive)
O=C1CC(N2CCC(O)CC2)C(=O)N1c1ccc(F)cc1 (stereo unspecified) | > 4 mM (inactive)
COc1cc2nc(-c3cccs3)oc(=O)c2cc1OC | > 4 mM (inactive)
CC[C@@]1(O)C(=O)OCc2c1cc1n(c2=O)Cc2cc3ccccc3nc2-1 | > 4 mM (inactive)
Cc1ccccc1-n1c(N)cc(=O)[nH]c1=S | > 4 mM (inactive)
CCOC(=O)Cn1cnc2sc3c(c2c1=O)CCC3 | > 4 mM (inactive)
Nc1ccc(N2CCOCC2)c(Cl)c1 | > 4 mM (inactive)
CC1C[C@H]2CC(=O)[C@H]3CCCN4CCC[C@H]2[C@]34C1 (stereo partly specified) | > 4 mM (inactive)
COc1cccc2onc(N)c12 | > 4 mM (inactive)
COc1ccc(/C=N/n2cn[nH]c2=S)cc1 | > 4 mM (inactive)
COc1cc(O)c2c(c1)C(=O)c1cc(C)cc(O)c1C2=O | > 4 mM (inactive)
CC(=O)Nc1cc(C(F)(F)F)ccc1N1CCOCC1 | > 4 mM (inactive)

SMILES | Kd
CN1CCN(CC(O)c2ccccc2)CC1 (stereo unspecified) | > 4 mM (inactive)
NCc1ccc(N2CCOCC2)cc1 | > 4 mM (inactive)
CC(=O)O[C@H]1CC[C@]2(C)C3CC[C@@]4(C)C(CC5O[C@@]6(CCC(C)CO6)[C@@H](C)C54)C3CC[C@@H]2C1 (stereo partly specified) | > 4 mM (inactive)
O=c1c(O)c(-c2ccccc2)oc2ccccc12 | > 4 mM (inactive)
Cc1ccc(SCc2cc(=O)n3[nH]cnc3n2)cc1 | > 4 mM (inactive)
O=C1CC(c2ccccc2)n2ncnc2N1 (stereo unspecified) | > 4 mM (inactive)
Cc1cc(=O)[nH]c2ccccc12 | > 4 mM (inactive)
Nc1c(/C=C2\C=Nc3ccccc32)c(=O)nc2scnn12 | > 4 mM (inactive)
CC(C)=CCc1c(O)cc2oc(C)cc(=O)c2c1O | > 4 mM (inactive)
Cc1csc2nc(=O)c3ccccc3n12 | > 4 mM (inactive)
Nc1ccnc(C(=O)O)c1 | > 4 mM (inactive)
COc1ccc2c(c1OC)C(=O)O[C@@H]2[C@@H]1c2cc3c(cc2CCN1C)OCO3 | > 4 mM (inactive)
O=[N+]([O-])c1cccc(-c2c[n+](=O)c3c(n2[O-])CCC3)c1 | > 4 mM (inactive)
OCc1nc2ccccc2s1 | > 4 mM (inactive)
N=C1/C(=C\c2ccco2)C(=O)N=C2SC=NN12 | > 4 mM (inactive)
OCc1ccc2nsnc2c1 | > 4 mM (inactive)
O=c1c2ccccc2nc2n1CCS2 | > 4 mM (inactive)
Nc1nc2n(c1C(=O)c1ccccc1)CCC2 | > 4 mM (inactive)
Clc1ncc2[nH]cnc2n1 | > 4 mM (inactive)
COc1cccc(/C=N/N=C2/NC(=O)CS2)c1 | > 4 mM (inactive)
COC(=O)C1CCN(c2ccc(Cl)nn2)CC1 | > 4 mM (inactive)
O=C(O)CC1Sc2ccccc2NC1=O (stereo unspecified) | > 4 mM (inactive)
CC1CCN(C(=S)c2ccccc2O)CC1 | > 4 mM (inactive)
Cc1c(C(=O)Nc2cnccn2)oc2ccccc12 | > 4 mM (inactive)

SMILES | Kd
Nc1ccccc1C(=O)N1CCNC(=O)C1 | > 4 mM (inactive)
Cc1ccc2cc(C(=O)O)ccc2n1 | > 4 mM (inactive)
COc1ccc(C2NC(C(=O)O)CS2)cc1 (stereo unspecified) | > 4 mM (inactive)
CSc1nc2nccc(N)n2n1 | > 4 mM (inactive)
COc1cc2c3cc1Oc1cc(ccc1O)C[C@@H]1c4c(cc(OC)c(O)c4Oc4ccc(cc4)C[C@@H]3N(C)CC2)CC[N+]1(C)C | > 4 mM (inactive)
S=C(NCc1ccco1)NN1CCOCC1 | > 4 mM (inactive)
O=C(O)c1ccccc1N1CCOCC1 | > 4 mM (inactive)
CCc1cccc(C)c1NC(=O)c1cc(C)oc1C | > 4 mM (inactive)
COc1ccc2c(c1)[nH]c1c(C)nccc12 | > 4 mM (inactive)
CC(C)(CO)NC(=O)c1ccccc1F | > 4 mM (inactive)
CC1(C)CC(=O)c2cnn(-c3nc4ccccc4[nH]3)c2C1 | > 4 mM (inactive)
Nc1cc2ccccc2cn1 | > 4 mM (inactive)
COc1cc([C@@H]2c3cc4c(cc3C(OC3O[C@@H]5COC(C)O[C@H]5[C@H](O)[C@H]3O)C3COC(=O)[C@@H]32)OCO4)cc(OC)c1O (stereo partly specified) | > 4 mM (inactive)
S=C(c1ccc(N2CCOCC2)cc1)N1CCCCC1 | > 4 mM (inactive)
NC1CN2CCC1CC2 (stereo unspecified) | > 4 mM (inactive)
N=c1c2c3c(sc2ncn1N)CCCC3 | > 4 mM (inactive)
NCc1ccc(-c2cccs2)cc1 | > 4 mM (inactive)
CN1C(CC(=O)c2ccccc2)CCCC1CC(O)c1ccccc1 (stereo unspecified) | > 4 mM (inactive)
CCSc1nc(=S)n(CC)c(C)c1C(C)=O | > 4 mM (inactive)
CN(C)C(=O)c1ccccc1-c1ccccc1 | > 4 mM (inactive)
O=C1CCCN1c1ccc(S(=O)O)cc1 | > 4 mM (inactive)
Cc1noc(C)c1C(=O)N1CCC2(CC1)OCCO2 | > 4 mM (inactive)
O=C(O)C1CC(=O)N(CCc2ccc(Cl)cc2)C1 (stereo unspecified) | > 4 mM (inactive)
O=C(NCc1cccc(Cl)c1)c1ccco1 | > 4 mM (inactive)

SMILES | Kd
N#C/C(=C\c1ccc[nH]1)S(=O)(=O)c1ccccc1 | > 4 mM (inactive)
CC[C@@H]1[C@@H](O)N2C3C[C@H]1C1C(O)[C@]4(C[C@@H]12)c1ccccc1N(C)[C@@H]34 (stereo partly specified) | > 4 mM (inactive)
O=[N+]([O-])c1ccc2c(c1)N([O-])C1(CCCCC1)[N+]2=O | > 4 mM (inactive)
CSc1nc(-c2ccccc2)ccc1C(N)=O | > 4 mM (inactive)
CCOC(=O)c1nc2ccccc2c(=O)n1N | > 4 mM (inactive)
CCN1C(=O)c2cccc3c(S(N)(=O)=O)ccc1c23 | > 4 mM (inactive)
O=C(c1ccccc1)c1ccccc1C(=O)N1CCCC1 | > 4 mM (inactive)
CN(C)S(=O)(=O)c1cccc(N)c1 | > 4 mM (inactive)
CNC(=O)C1CCCN(S(C)(=O)=O)C1 (stereo unspecified) | > 4 mM (inactive)
CN1CCC(O)N1C(=O)c1ccccc1O (stereo unspecified) | > 4 mM (inactive)
COn1c(=O)c(-c2ccco2)[n+]([O-])c2ccccc21 | > 4 mM (inactive)
CC1(C)C(=O)C=C[C@@]2(C)C1=C(O)C(=O)[C@]1(C)C2CC[C@@]2(C)[C@H](c3ccoc3)C[C@H]3O[C@]321 (stereo partly specified) | > 4 mM (inactive)
Cc1cc(C(=O)NC(C)c2ccncc2)no1 (stereo unspecified) | > 4 mM (inactive)
O=C(Nn1cnnc1)c1cc2c(s1)CCCCC2 | > 4 mM (inactive)
COc1cc(C(C)=O)ccc1OC(=O)N1CCOCC1 | > 4 mM (inactive)
CCCc1ncc(C(O)c2cccc3ccccc23)n1C (stereo unspecified) | > 4 mM (inactive)
Cn1c(O)c(C=NCC2CCNCC2)c(=O)n(C)c1=O | > 4 mM (inactive)
COC(=O)C[C@@H]1C2(C)C(=O)[C@@H](CC3=C4CC(=O)O[C@@H](c5ccoc5)[C@]4(C)CCC32)[C@H](OC(C)=O)C1(C)C (stereo partly specified) | > 4 mM (inactive)
CC12CCCC(O)(C1)C1CC(C)(C)C1CC2 (stereo unspecified) | > 4 mM (inactive)
Nc1ccc(OC(F)(F)F)cc1 | > 4 mM (inactive)
NS(=O)(=O)c1ccc(N2CCCC2=O)cc1 | > 4 mM (inactive)
O=c1cccc2n1C[C@H]1CNCC2C1 | > 4 mM (inactive)
CCSc1nnc(-c2ccccc2N)c(=O)[nH]1 | > 4 mM (inactive)
COc1c2c(cc3c1OCO3)CCN(C)C2 | > 4 mM (inactive)

SMILES | Kd
O=C(O)CS(=O)(=O)c1ccccc1[N+](=O)[O-] | > 4 mM (inactive)
NC(=S)NC(=O)CN1C(=O)c2ccccc2C1=O | > 4 mM (inactive)
CCCCN1C(=O)N(C)C2NC(=O)NC21 (stereo unspecified) | > 4 mM (inactive)
O=C(O)CN1CCNCC1 | > 4 mM (inactive)
O=C(c1cnsn1)N1CCN(c2ccccn2)CC1 | > 4 mM (inactive)
COc1ccc(S(=O)(=O)Nc2ccccn2)c(C)c1C | > 4 mM (inactive)
O=c1[nH]c(O)c(C=NCc2cccs2)c(=O)[nH]1 | > 4 mM (inactive)
CCN1C(=O)N(CO)C2C1N(C)C(=O)N2C (stereo unspecified) | > 4 mM (inactive)
COc1cc(OC)c(OC)cc1C=O | > 4 mM (inactive)
O=C(c1cnsn1)N1CCN(c2ccccc2)CC1 | > 4 mM (inactive)
COC(=O)c1c(C)cc(OC)cc1O | > 4 mM (inactive)
CC1CN(Cc2ccccn2)CCC1=O (stereo unspecified) | > 4 mM (inactive)
CC1=CC2C(CC1=O)C(C)=CCC2C(C)C (stereo unspecified) | > 4 mM (inactive)
CC1(C)CC[C@]2(C(=O)O)CC[C@]3(C)C(=CCC4[C@@]5(C)CC[C@@H](O)C(C)(C)C5CC[C@]43C)C2C1 (stereo partly specified) | > 4 mM (inactive)
CN1C(=O)N(C)C2NC(=O)NC21 (stereo unspecified) | > 4 mM (inactive)
Cc1ccc(N2C(=O)CC(=O)NC2=O)cc1 | > 4 mM (inactive)
CN(C)C(=O)Nc1ccc2c(c1)nnn2C | > 4 mM (inactive)
O=C1CSC(=S)N1Cc1cccnc1 | > 4 mM (inactive)
CC(=O)O[C@@H]1CC2C(C)(C)[C@H](O)C=C[C@]2(C)C2CC[C@@]3(C)[C@H](c4ccoc4)OC(=O)C4OC43[C@@]21C (stereo partly specified) | > 4 mM (inactive)
CN1C(=O)c2ccc(C(=O)NC3CCCCC3)cc2C1=O | > 4 mM (inactive)
